Data on 5 molecules can be found in patent US20180214560A1, “HPMA-DRUG CONJUGATES FOR THE TREATMENT OF ACUTE MYELOID LEUKEMIA” (University of Utah Research Foundation, priority 2015, published 2018).

The conditions of data set [1]: 37 °C, after 48 h, 100 μg CYT/mL.
Procedure: The stability of free and HPMA copolymer-bound cytarabine in human plasma was evaluated. […] At selected time points, 5 μL tetrahydrouridine (THU, 1 mg/mL in DI H2O, used as inhibitor of cytidine deaminase to prevent cytarabine from deamination) was added to a vial containing 100 μL sample. For free drug, 1 mL of mixture of acetonitrile/methanol (9:1) was added to precipitate proteins. The vial was vortex-mixed and then centrifuged at 13,000 g for 10 min at 4° C. The supernatant was carefully transferred into a 2 mL vial that was placed into a 40° C. water bath and bubbled with nitrogen. After organic solvents were removed, the resulting dry residue was dissolved in 0.5 mL DI H2O with 0.1% TFA. The sample was filtered and then 10 μL was injected to an analytical C18 column (Zorbax 300SB, 5 μm, 4.6×250 mm) for HPLC analysis. The amount of intact CYT was calculated based on the area under the curve (AUC) recorded at 268 nm wavelength and calibration curve from a series of standard CYT concentrations. To determine the CYT stability in conjugate, 1-amino-2-propanol (10 μL) was added to the sample prior to plasma precipitation in order to cleave CYT from polymer backbone. Then the sample was examined following the same procedure as described above.
The next data set has as its system HL-60 cells. The data set can be described thus: Cell cycle analysis by flow cytometry (propidium iodide). To be noted: 48 h; CYT=1 μM; DAU=0.04 μM; GDC=1 μM; JSK=0.5 μM. It counts as cell-based, human. Here is the method: HL-60 cells (2×10^5 cells/mL) were seeded in 6-well plates, and treated with drug alone or different combinations of two drugs at the following concentrations for each: […] JSK=0.5 μM. Following 48-h treatment, cells were harvested, fixed and stained with propidium iodide (PI) at room temperature in the dark. Cell cycle analysis was performed by flow cytometry using BD LSR Fortessa machine (BD Biosciences, San Jose, Calif.). Cell percentages in the different phases of cell cycle were analyzed using FlowJo software (Tree star, Ashland, Oreg.).

In the next data set the test system is HL-60 human AML cells. The data set can be described thus: In vitro cytotoxicity (CCK-8 assay). In kind it is cell-based. As for the experimental part:
The cytotoxicity of free drugs (CYT, DAU, GDC, and JSK) and two polymeric conjugates (P-CYT, P-GDC) against HL-60 was measured using the CCK-8 assay (Dojindo, Kumamoto, Japan). The cells were seeded in 96-well plates at a density of 20,000 cells/well in RPMI-1640 media containing 2 mM L-glutamine and 10% FBS. Then, 50 μL media containing the drugs were added. The cells were incubated with free drugs (CYT, DAU, GDC, and JSK) or the polymeric conjugates (P-CYT, P-GDC) at a range of drug concentrations. After 48 h incubation, the number of viable cells was estimated using the CCK-8 kit according to manufacturer's protocol. After the cells were incubated with the reagent at 37° C. for 4 h, the absorbance was measured using a microplate reader at 450 nm (630 nm as reference). Viability of treated cells was calculated as a percentage of the viability of untreated controls.
Background: Tetrazolium assays rely on reduction of a dye to a coloured formazan, in cell work by metabolically active cells.

In data set [2] the test system is DOX resistant (A2780/AD) human ovarian carcinoma xenografts. To be noted: resistant tumors (A2780/AD); cited from earlier work.
The conditions of data set [3]: humans; P-DOX in DOX equivalent; cited from earlier work.
For data set [4] the following is noted: cited from earlier work.
[5] abbreviates: Homo sapiens, HL-60 cells, 48 h incubation, read-out: IC50.

Where two headings read alike, the source gives them in different places.

As for `Nc1ccn([C@@H]2O[C@H](CO)[C@@H](O)[C@@H]2O)c(=O)n1` [CYT, cytarabine], the “CYT still present in human plasma” value in data set [1] is recorded as “all free drug disappeared”. For the same molecule, in the data set on HL-60 cells, the “Change of G0/G1 phase population” value is “decrease in the G0/G1 population” and the “Change of S phase population” value is “arrested the cells in S phase”. Moreover, the IC50 in the data set on HL-60 human AML cells (setting [5]) stood at 1.05 µM.

With `COc1cccc2c1C(=O)c1c(O)c3c(c(O)c1C2=O)C[C@@](O)(C(C)=O)C[C@@H]3O[C@H]1C[C@H](N)[C@H](O)[C@H](C)O1` [DAU, daunorubicin], in the data set with HL-60 cells, the “Change of G0/G1 phase population” value is “decrease in the G0/G1 population” and the “Change of G2/M phase population” value is reported as “accumulate in the G2/M phase”. Further, the IC50 in the data set on HL-60 human AML cells (Homo sapiens, HL-60, 48 h) was 0.04 µM.

`COc1cccc2c1C(=O)c1c(O)c3c(c(O)c1C2=O)C[C@@](O)(C(=O)CO)C[C@@H]3O[C@H]1C[C@H](N)[C@H](O)[C@H](C)O1` [DOX, doxorubicin]: in data set [2], the “Decrease of tumor size” value is listed as “effective only in sensitive tumors”. Also, the “Maximum tolerated dose (MTD)” value in data set [3] was 60-80 mg/m2.

For the molecule `Cc1c(CN2CCN(C(=O)[C@H](C)O)CC2)sc2c(N3CCOCC3)nc(-c3cnc(N)nc3)nc12` [GDC, GDC-0980], the “Change of G0/G1 phase population” value with HL-60 cells is “slight increase in the G0/G1 phase population”. Moreover, in the data set on HL-60 human AML cells (setting [5]), the IC50 is 0.75 µM. In addition, in data set [4], the “Solubility of free GDC” value is given as “poor solubility”.

For the molecule `CCOC(=O)N1CCN(/[N+]([O-])=N/Oc2ccc([N+](=O)[O-])cc2[N+](=O)[O-])CC1` [JSK, JS-K], in the data set on HL-60 cells, the “Change of G0/G1 phase population” value is recorded as “decrease in the G0/G1 population”, the “Change of G2/M phase population” value was “did not make significant changes in those fractions” and the “Change of S phase population” value is “did not make significant changes in those fractions”. Moreover, the IC50 with HL-60 human AML cells (HL-60 cells, 48 h incubation, read-out: IC50) is 0.44 µM.

One may read the IC50 as the concentration at which inhibition is half-maximal.
